Reference: paper PMC2360155, “Novel retinoic acid metabolism blocking agents have potent inhibitory activities on human breast cancer cells and tumour growth” (British Journal of Cancer, 2007)

Columns and labels:
Bad = experiment: Western immunoblotting for Bad in MCF-7 and T47D cells; assay type: cell-based, human; details: 1, 5 and 10 μM each; 6 days; no significant dose-dependent effect
Protocol: (§1) At the end of the treatment, cells were scrapped and collected by washing with ice-cold PBS in a centrifuge tube. Cells were centrifuged at 2500 r.p.m. for 10 min, the pellet was again washed with ice-cold PBS and centrifuged. The cell pellet was then suspended in chilled cell lysis buffer (0.1 M Tris–HCl, 0.5% Triton X-100, protease inhibitor cocktail) and sonicated on ice for 10–15 s. The homogenate was kept on ice for 30 min and then centrifuged at 13 000 r.p.m. for 30 min. The supernatant was used as cell lysate. The cell lysates were stored at −80°C. Protein concentration of the cell lysates was determined using Bio-Rad protein assay reagents.
(§2) Protein lysates from MCF-7 and T47D cells were subjected to sodium dodecyl sulphate–polyacrylamide gel electrophoresis (SDS–PAGE) and immunoblotted for different proteins. […] Immunoreactive bands were visualised using the enhanced chemiluminescence detection reagents and analysis system (Amersham Bioscences) according to the manufacturer's instructions and quantified by densitometry using ImageQuant software version 5.
Figure 7 (A) Western immunoblotting of whole-cell lysates of treated MCF-7 and T47D cells for the expression of Bad. […] Numbers below the blot show fold increase in expression of the protein as analysed by ImageQuant densitometry analysis. […]

ER-α = experiment: Western immunoblotting for ER-α in MCF-7 cells; assay type: cell-based, human; details: 1–10 μM, 6 days, dose-dependent
Protocol: as §1, §2
Figure 4 Western immunoblotting analysis of whole-cell lysates of treated MCF-7 cells for the expression of ER-α. […] Numbers below the blot show fold increase in expression of the protein as analysed by ImageQuant densitometry analysis. […]

MCF-7 tumour xenografts = experiment: In vivo antitumour study, established MCF-7 tumour xenografts; details: for Reduction in mean tumour volume compared with vehicle control / Reduction in mean tumour volume compared with the ATRA group (10 mg kg^−1 day^−1): 6 weeks; for Antitumour effect relative to ATRA / 4-HPR (33.0 μmol kg^−1 day^−1), in words: VN/14-1 16.5 μmol kg^−1 day^−1, VN/66-1 66.0 μmol kg^−1 day^−1
Protocol: All the animal studies were performed according to the guidelines and approval of the Animal Care Committee of the University of Maryland, School of Medicine. Ovariectomised female athymic nude 4–6-week-old mice were used. […] Ovariectomised mice were then inoculated with MCF-7 cells (2 × 10^6 cells in Matrigel per tumour growth site) subcutaneously (s.c.) on the right and left flank. Tumour volumes were measured weekly with calipers. […] Retinoic acid metabolism blocking agents were formulated in 0.3% HPC (hydroxy propyl cellulose). […] Compounds were injected continuously for three days with a drug holiday of one day after every 3 days of treatment. Twice per week, the mice were weighed and tumours were measured using a caliper. Tumour volume was calculated according to the formula 4/3πr1^2r2 (r1<r2). The tumour treatment study was continued for 6 weeks. At the end of 6 weeks, mice were killed and blood plasma, as well as tumours, were collected, weighed and stored at −80°C until analysis.
Female ovariectomised nude mice bearing established MCF-7 tumour xenografts (200–300 mm^3) were grouped so that the mean tumour volume was similar for each group. […] Tumour sizes were measured twice a week after the start of treatment.
Ovariectomised female athymic nude 4–6-week-old mice were used. Oestrogen pellets (1.7 mg per pellet, 90 day release obtained from Innovative Research of America) were implanted in the mice using a trochar to facilitate tumour growth. Mice were then inoculated with MCF-7 cells (2 × 10^6 cells in Matrigel per tumour growth site) s.c. on the right and left flank. Tumours were allowed to grow for about 4–5 weeks till they were of measurable size (200–300 mm^3). The mice were then grouped as control and treatment groups. Twice every week the mice were weighed and tumours were measured using a caliper. Tumour volume was calculated according to the formula 4/3πr1^2r2 (r1<r2). The tumour treatment study was continued for 6 weeks. […] Mice were weighed twice every week during the 6-week antitumour study.

Compound: CC1=C(/C=C/C(C)=C/C=C/C(C)=C/C(=O)O)C(C)(C)CCC1n1ccnc1 (stereo not shown) [VN/14-1]
- Upregulation of Bad protein (Bad): about two-fold
- Increase in expression of ER-α (ER-α): from four- to six-fold
- Reduction in mean tumour volume compared with vehicle control (MCF-7 tumour xenografts; 16.5 μmol kg^−1 day^−1 s.c.): 66.5%
- Reduction in mean tumour volume compared with the ATRA group (10 mg kg^−1 day^−1) (MCF-7 tumour xenografts; 33.0 μmol kg^−1 day^−1 s.c.): 45%
- Reduction in mean tumour volume compared with vehicle control (MCF-7 tumour xenografts; 33.0 μmol kg^−1 day^−1 s.c.): 79.4%
- Reduction in mean final tumour weight compared with mice receiving vehicle alone (MCF-7 tumour xenografts; 66.0 μmol kg^−1 day^−1): 92.6%
- Reduction in mean tumour volume compared with the ATRA group (10 mg kg^−1 day^−1) (MCF-7 tumour xenografts; 66.0 μmol kg^−1 day^−1 s.c.): 75.61%
- Reduction in mean tumour volume compared with vehicle control (MCF-7 tumour xenografts; 66.0 μmol kg^−1 day^−1 s.c.): 92.6%
- Antitumour effect relative to ATRA / 4-HPR (33.0 μmol kg^−1 day^−1), in words (MCF-7 tumour xenografts): comparable with the antitumour effect of ATRA or 4-HPR
- Tumour regression in the antitumour efficacy studies (MCF-7 tumour xenografts; mouse, in vivo): did not cause any tumour regressions

Compound: CC1=C(/C=C/C(C)=C/C=C/C(C)=C/C(=O)Nc2ccc(O)cc2)C(C)(C)CCC1n1ccnc1 (stereo not shown) [VN/66-1]
- Antitumour effect relative to ATRA / 4-HPR (33.0 μmol kg^−1 day^−1), in words (MCF-7 tumour xenografts): not better than ATRA

Compound: CC1=C(/C=C/C(C)=C/C=C/C(C)=C/C(=O)O)C(C)(C)CCC1 [ATRA, all-trans-retinoic acid, reference compound]
- Upregulation of Bad protein (Bad): about two-fold
- Increase in expression of ER-α (ER-α): from two- to eight-fold
